Assay results published in patent US8063014B2, “Self-assembly of peptide-amphiphile nanofibers under physiological conditions” (Northwestern University, priority 2002, dated 2011).
Non-standard residues stand in square brackets, D forms with d. Residues, ends and D or L forms follow the SMILES beside them. *: point of attachment. C16 alkyl = N-terminal C16 alkyl tail, CCCCCCCCCCCCCCCC*; Palmitoyl = CCCCCCCCCCCCCCCC(=O)*; pS = N[C@@H](COP(=O)(O)O)C(=O)O

What was measured:
[1] = Solubility, pH-dependent precipitation and gelation in water; assay type: physicochemical
Experimental: (§1) After synthesis (see, example 10), the PA of FIG. 1 (characterized by ^1H NMR and matrix-assisted laser desorption/ionization time-of-flight mass spectrometry (MALDI-TOF MS): matrix ion [M−H]^−1=1333) was treated with dithiothreitol (DTT) at a pH of 8 to reduce all cysteine residues to free thiols. […] However, upon acidification of the solution below pH 4 the material rapidly becomes insoluble. Solutions more concentrated than 2.5 mg/ml form birefringent gels in water that are self-supporting upon inversion of the container. […] Negatives were digitized in the Umax PowerLook scanner with resolution 1200 dpi. The average thickness of the PA fibers was determined by two different procedures. First the Fourier transform of the images and following measurements of the distances between the peaks were performed in the NIH Image […] program. The second approach applied was averaging technique based on the cross-correlation method, widely used in single particle reconstruction using the EMAN […] program. For each data set 1200-1300 individual boxes were selected.
Several PAs with basic amino acids that can self-assemble at alkaline pH and also mixed systems, in which oppositely charged PAs self-assemble at neutral pH, were prepared. For this purpose PA compounds 22-25 were prepared by standard solid phase peptide synthesis followed by alkylation with the C16 fatty acid, palmitic acid. See Table 2, FIG. 10b (PA 22) and FIGS. 10c-e (PAs 23-25). The peptides thus prepared were characterized by electrospray mass spectroscopy and found to correspond to their respective expected masses.
Solutions of each compound of example 6 were prepared at a concentration of 0.1 mg/m1 at neutral pH.

[2] = TEM of self-assembled nanofibers (fiber formation and diameter); assay type: physicochemical
Experimental: as §1, with “selected. […]” for “selected.”
Samples of the peptide-amphiphiles were prepared for TEM analysis in two different ways. In some cases a small sample of the gel, prepared in bulk as described above, was smeared onto a holey carbon coated TEM grid (Quantifoil). […]

[3] = Mineralization of PA nanofibers with CaCl2 and Na2HPO4 on TEM grid; settings: 30 minutes of incubation with calcium and phosphate
Experimental: To investigate the mineralization properties of PA nanofibers of this invention, the material was assembled and mineralized directly on a holey carbon coated TEM grid—to allow study of the dynamics of the mineralization process while minimizing artifacts of TEM sample preparation. To prepare samples, a drop of aqueous PA (1 mg/ml) was mounted on the holey grid and the self-assembly of the PA was induced in an atmosphere of HCl vapor. The grids were immersed in aqueous iodine to oxidize the cysteine thiol groups to disulfides. After rinsing with distilled water, the PA coated grids were treated with 5 μl of 10 mM CaCl2 on one side and 5 μl of 5 mM Na2HPO4 on the other side. The two solutions are able to mix only by passing through the holes in the carbon support.
In a second control, a PA was prepared in which phosphoserine was replaced by serine and treated as above with calcium and phosphate.

[4] = Self-assembly on drying onto a surface; assay type: physicochemical; settings: dissolved at neutral / physiological pH (pH 8), dried, negative stain TEM
From the text: Such a facile approach allows this novel material to be formed in a pH independent manner, as may be important in applications that are particularly sensitive to changes in pH, including the delivery of cells in conjunction with the gelling system and generally avoiding contact between tissues and materials at non-physiological pH.
Illustrating another gelation factor of this invention, self-assembly can occur by simply taking a PA (such as PA 17, Table 2) or a combination of PAs dissolved in water at pH 8 and placing it on a surface which is allowed to dry (for example, directly on a carbon coated TEM grid). […] (See, FIG. 11.)

Compound | pH below which the material rapidly becomes insoluble on acidification ([1]; acidification of the aqueous solution) [pH] | concentration above which solutions form self-supporting birefringent gels in water ([1]; after acidification) [µg/mL] | solubility in water ([1]; pH of 8, DTT-reduced) [mg/mL] | fiber diameter, positively and negatively stained dried fibers ([2]; TEM, dried) [nm] | fiber diameter, cryo-TEM ([2]; native hydrated gel) [nm] | mineral observed on the fibers by TEM [3] | self-assembly on drying from solution onto a surface [4]
CCCCCCCCCCCCCCCC(=O)N[C@@H](CS)C(=O)N[C@@H](CS)C(=O)N[C@@H](CS)C(=O)N[C@@H](CS)C(=O)NCC(=O)NCC(=O)NCC(=O)N[C@@H](COP(=O)(O)O)C(=O)N[C@@H](CCCNC(=N)N)C(=O)NCC(=O)N[C@@H](CC(=O)O)C(=O)O [PA 26, Alkyl*-C4G3S^(P)RGD-COOH] (Palmitoyl-CCCCGGG[pS]RGD-OH) | < 4 | > 2500 | > 50 | 6.0±1 | 7.6±1 | heavy crystallization | 
17 ({C16 alkyl}-CCCCGGG[pS]RGD-OH; cysteine pairing not given here) [compound 17] |  |  |  |  |  |  | formation of nanofibers
